Measurements: patent EP2077274A1, “Synthetic analogs of human beta-defensins having antimicrobial, antiviral and chemotactic activity” (Ceinge Biotecnologie Avanzate s.c. a r.l., priority 2008, dated 2009)

How the values were obtained:
P.aeruginosa ATCC 27853 = assay: Colony-forming unit (CFU) assay of antibacterial activity with NaCl dependence; format: cell-based; conditions: for antibacterial activity, inhibition by NaCl: 50 mM NaCl; for antibacterial activity at 200 mM NaCl: p<0.001 versus hBD3 in the same conditions; for antibacterial activity at 200 mM NaCl / antibacterial activity compared to wild-type hBD3: 200 mM NaCl
Method: (§1) Colony-forming unit (CFU) assay of the antibacterial activity of the peptides against P.aeruginosa ATCC (American Type Culture Collection, Manassas, VA, USA) 27853, Enterococcus faecalis ATCC 29212 and Escherichia coli ATCC 25922 was performed. The strains were grown in aerobic conditions in tryptic soy broth (Difco Laboratories, Detroit, MI, USA) at 37°C. Cells from exponential-phase cultures were centrifuged, washed and suspended to a density of 1 x 10^5 CFU/mL in sterile 10 mM potassium phosphate buffer, pH 7.4, and incubated in the presence of the peptides. The incubation time was 2 h at 37°C. […] For salt dependence assay, NaCl in a range of concentrations potentially present in the airway surface fluid of normal subjects and CF patients (33), i.e., 0, 50, 100 and 200 mM NaCl, were included in the incubation buffer. The cells were then diluted serially in the same buffer, spread on tryptone-yeast (Difco Laboratories) plates and the colonies were counted after 18 h at 37°C. Each assay was performed in triplicate. Bactericidal activity (mean and SD of three assays) is expressed as the ratio between colonies counted and the number of colonies on a control plate.

[1] = tested on: Enterococcus faecalis ATCC 29212; assay: as above; format: cell-based; conditions: for antibacterial activity, inhibition by NaCl: 50 mM NaCl; for antibacterial activity at 200 mM NaCl: p<0.001 versus hBD3 in the same conditions; for antibacterial activity compared to wild-type hBD3: peptide 12.5 µM, p<0.01; for antibacterial activity at 200 mM NaCl / antibacterial activity compared to wild-type hBD3: 200 mM NaCl
Method: as §1

[2] = tested on: Escherichia coli ATCC 25922; assay: as above; format: cell-based; conditions: for antibacterial activity, inhibition by NaCl: 50 mM NaCl; for antibacterial activity at 200 mM NaCl: p<0.001 versus hBD3 in the same conditions; for antibacterial activity compared to wild-type hBD3: peptide 12.5 µM, p<0.01; for antibacterial activity at 200 mM NaCl / antibacterial activity compared to wild-type hBD3: 200 mM NaCl
Method: as §1

neutrophils = assay: Chemotaxis assay (leukocyte migration, calcein fluorescence); format: cell-based, human; conditions: for chemotactic activity compared to wild-type hBD1: peptide 1.25 µM
Method: (§2) Preparation of leukocytes-Monocytes and neutrophils were isolated as described in the StemSep Cell Technical Manual (Stem Cell Technologies, Vancouver, Canada). Briefly, to obtain neutrophils, buffy coats were diluted 1:20 in NH4Cl supplemented with 2 mM EDTA and incubated on ice for 20 min. Cell suspensions were centrifuged for 10 min at 600 X g at room temperature with the brake off and washed three times with phosphate buffered saline (PBS) supplemented with 2% foetal bovine serum and 2 mM EDTA. Cell viability was assessed by analysis of light scatter properties, and cell count was performed using a logical gate strategy based on Trucount tubes (Becton-Dickinson, San Jose, CA, USA). Neutrophils were purified from lysed buffy coats using StemSep negative selection system. To this purpose, 100x10^6 mononuclear cells from lysed buffy coats were incubated with 100 µL of custom antibody cocktail for human granulocytes enrichment (Stem Cell Technologies) for 45 min on ice. In addition, cell suspensions were incubated with 60 µL of magnetic colloid for 30 minutes on ice. Finally, the samples were run through a 0.3-inch column matrix in a negative selection system in which the unwanted cells were immunomagnetically labelled and bound to the magnetic column. Neutrophils, after the separation, were collected in the column flowthrough without antibody bound to their surface. In order to obtain monocytes, human buffy coats were layered over a Ficoll-Paque density gradient and spun at 600 X g for 30 min with the brake off. The mononuclear cell-rich fractions were washed three times with PBS supplemented with 2% foetal bovine serum (FBS) and 2 mM EDTA. Cell viability was assessed by analysis of light scatter properties, and cell count was performed using a logical gate strategy based on Trucount tubes (Becton-Dickinson). A custom antibody cocktail for human monocyte enrichment (Stem Cells Technologies) was used for immunomagnetic negative selection of monocytes. Mononuclear cells were incubated as above described for neutrophils. Both neutrophils and monocytes were resuspended in 5.0 mL of RPMI-1640 (Sigma-Aldrich, St Louis, MO, USA) without phenol red containing 10% heat-treated FBS. Calcein AM (Molecular Probes, Eugene, OR, USA) was added to the cell suspensions (5.0 mL) at a concentration of 5 µg/mL and the cells were incubated for 30 min at 37°C. Cell suspensions were washed twice with PBS and then resuspended in RPMI-FBS to the desired concentration.
(§3) Measurement of leukocytes migration-The chemotaxis assay of monocytes and neutrophils (90-95% of purity) was performed in 96-well disposable chemotaxis chambers (Neuroprobe, Gaithersburg, MD, USA) using polyvinyl-pyrrolidone-free polycarbonate membranes with an […] pore size for monocytes and with a […] pore size for neutrophils. Chemotaxis was measured by fluorescence detection, using the calcein fluorescence signal. The fluorescence was read in a microplate fluorescence reader (Victor 3 1420 Multilabel Counter, Perkin Elmer) with excitation/emission wave-length settings of 485/530 nm. We calculated the migration index as the ratio between the sample mean fluorescence (after subtraction of the negative control mean fluorescence)/positive control mean fluorescence. Each assay was performed in quadruplicate.

monocytes = assay: as above; format: cell-based, human; conditions: for chemotactic activity compared to wild-type hBD1: peptide 1.25 µM
Method: as §2, §3

HSV-1 = HSV-1 infectivity plaque assay on Vero cell monolayers (co-exposure, virus pre-treatment, cell pre-exposure); format: cell-based; conditions: for % of infectivity: mean and SD of 3 replicates; for inhibition of HSV infectivity: peptide 50 µM, reduced form
Method: Vero cells were grown in Dulbecco's modified Eagle's medium (DMEM) supplemented with 10% foetal calf serum. HSV-1 carrying a IacZ gene driven by the cytomegalovirus (CMV) IE-1 promoter to express beta-galactosidase was propagated as described (33). Peptides were dissolved in DMEM with serum and used at different concentrations. All experiments were conducted in parallel with scrambled peptides and no-peptide controls. […] Non-penetrated viruses were inactivated by citrate buffer at pH 3.0 after the 45 min incubation with cells at 37°C. The cells were then incubated for 48 h at 37°C in DMEM supplemented with carboxymethylcellulose (CMC). Monolayers were fixed, stained with 5-bromo-4-chloro-3-indolyl-beta-D-galactopyranoside (X-gal) and plaque numbers were scored. Experiments were performed in triplicate and the percentage of inhibition was calculated with respect to no-peptide control experiments. ii) For "virus pre-treatment" experiments, approximately 2 x 10^4 plaque forming units (PFU) of HSV-1 were incubated in the presence of 20 µM of peptides for 45 min at 37°C, then titrated on Vero cell monolayers. iii) For "cell pre-exposure" experiments, Vero cells were incubated with 20 µM of peptides for 30 min at 4°C. Peptides were removed, and cells were washed with phosphate-buffered saline before being infected with serial dilutions of HSV-1 and incubated for 45 min at 37°C.
Monolayers were exposed to different concentrations (10, 50, 100, 250 and 500 µM) of each peptide for 24 h, and cell viability was evaluated with the LDH assay. There was no significant difference between the viability of cells exposed to the peptides and that of cells exposed to control (data not shown). Thus, we evaluated the antiviral activity of wild type peptides and their analogs in: co-exposure experiments (cell + virus + peptide at zero time); virus pre-treatment (virus + peptide incubation before cell infection); and cell pre-exposure (cell + peptide incubation before virus infection). This would allow to evaluate if, and in which phase, the peptides could inhibit the virus infectivity.
For co-exposure experiments, we incubated the peptides on the monolayers of Vero cells together with the virus inoculum for 45 min before low pH treatment. The reduced form of wild-type hBD1 and hBD3 and analogs 1C, 1 N, 3C, 3N were used in all subsequent experiments. […] No control (peptide excluded) inhibited HSV-1 infectivity under similar experimental conditions.

[3] = cell pre-exposure, peptide 20 µM
[4] = virus pre-incubation, peptide 20 µM
[5] = 0 to 200 mM NaCl, pattern as against P. aeruginosa

Row | Sequence | antibacterial activity, inhibition by NaCl (P.aeruginosa ATCC 27853) | antibacterial activity, inhibition by NaCl [1] | antibacterial activity, inhibition by NaCl [2] | chemotactic activity compared to wild-type hBD1 (neutrophils) | antibacterial activity at 200 mM NaCl (P.aeruginosa ATCC 27853) | antibacterial activity at 200 mM NaCl [1] | antibacterial activity at 200 mM NaCl [2] | chemotactic activity compared to wild-type hBD1 (monocytes) | % of infectivity (HSV-1; [3]) | % of infectivity (HSV-1; co-exposure, peptide 20 µM) | % of infectivity (HSV-1; [4]) | further results
1 | DHYNCVSSGGQCLYSACLPKEEQIGKCYRGKAKCCK [1I] | inhibited already by 50 mM NaCl | inhibited already by 50 mM NaCl | inhibited already by 50 mM NaCl | significantly lower activity | – | – | – | – | – | – | – | –
2 | DHYNCVSSGGQCLYSACLPKEEQIGKCYRGKRKCCRRKK [1CI] | – | – | – | significantly lower activity | displayed antibacterial activity | displayed antibacterial activity | displayed antibacterial activity | significantly lower | – | – | – | –
3 | DHYNCVSSGGQCLYSACPIFTKIQGTCYRGKAKCCK [hBD1 wt, wild type human beta-defensin 1, reference compound] | inhibited already by 50 mM NaCl | inhibited already by 50 mM NaCl | inhibited already by 50 mM NaCl | – | – | – | – | – | 71.3±1.2 % | 74.7±2.4 % | 65.3±3.8 % | chemotactic activity, effect of NaCl (monocytes; 200 mM NaCl): comparable to that obtained at 100 mM NaCl; chemotactic activity, effect of NaCl (monocytes; NaCl between 100 and 150 mM, p<0.001): significantly increased; chemotactic activity, effect of NaCl (neutrophils; NaCl concentrations up to 200 mM): did not significantly affect
4 | DHYNCVSSGGQCLYSACPIFTKIQGTCYRGKRKCCRRKK [1C] | – | – | – | comparable to that of hBD1 | – | – | – | significantly lower | 24.1±2.2% | 57.6±1.8 % | 40.3±2.6% | antibacterial activity compared to wild-type hBD3 (P.aeruginosa ATCC 27853; peptide 2.5 and 12.5 µM, p<0.001): significantly higher; antibacterial activity compared to wild-type hBD3, pattern over NaCl concentrations [1, 5]: same pattern of activity; antibacterial activity compared to wild-type hBD3, pattern over NaCl concentrations [2, 5]: same pattern of activity; antiviral activity in words (HSV-1; cell pre-exposure treatment, peptide 20 µM): active; inhibition of HSV infectivity (HSV-1; co-exposure): 70%
5 | GIINTLDHYNCVSSGGQCLYSACPIFTKIQGTCYRGKAKCCK [1N] | inhibited already by 50 mM NaCl | inhibited already by 50 mM NaCl | inhibited already by 50 mM NaCl | significantly lower activity | – | – | – | comparable to that of wild-type hBD1 | 64.8±3.5 % | 73.2±4.2 % | 75.6±3.5 % | antibacterial activity compared to wild-type hBD3 (P.aeruginosa ATCC 27853; peptide 12.5 µM, p<0.01): significantly higher; antibacterial activity compared to wild-type hBD3 [1]: significantly higher; antibacterial activity compared to wild-type hBD3 [2]: significantly higher
6 | GIINTLQKYYCRVRGGRCAVLSCLPKEEQIGKCSTRGAKCCK [3C] | – | – | – | – | – | – | – | – | 50.3±3.4 % | 61.7±3.4 % | 32.4±4.3% | –
7 | GIINTLQKYYCRVRGGRCAVLSCPIFTKIQGTCSTRGAKCCK [3CI] | inhibited already by 50 mM NaCl | inhibited already by 50 mM NaCl | inhibited already by 50 mM NaCl | significantly higher | – | – | – | significantly lower | – | – | – | antibacterial activity compared to wild-type hBD3 (P.aeruginosa ATCC 27853; peptide 12.5 µM, p<0.01): significantly higher; antibacterial activity compared to wild-type hBD3 [1]: significantly higher; antibacterial activity compared to wild-type hBD3 [2]: significantly higher
8 | GIINTLQKYYCRVRGGRCAVLSCPIFTKIQGTCSTRGRKCCRRKK [3I] | – | – | – | – | displayed antibacterial activity | displayed antibacterial activity | displayed antibacterial activity | comparable to that of wild-type hBD1 | – | – | – | –
9 | QKYYCRVRGGRCAVLSCLPKEEQIGKCSTRGRKCCRRKK [3N] | – | – | – | comparable to that of hBD1 | displayed antibacterial activity | displayed antibacterial activity | displayed antibacterial activity | – | 13.4±4.2% | 20.4±2.4% | 8.5±2.1 % | inhibition of HSV infectivity (HSV-1; co-exposure): 90%
